Measured values published in the supplement of paper PMC10307832.

Legend:
Test in all cases: relative viability (nuclei count vs DMSO), 5 days (fraction); higher = more cells survive
[1] = compound: CN(C)CC1=CC(=CC=C1)N=C(C2=CC=CC=C2)C3=C(NC4=C3C=CC(=C4)C(=O)N(C)C)O + CS(=O)(=O)N1CCN(Cc2cc3nc(-c4cccc5[nH]ncc45)nc(N4CCOCC4)c3s2)CC1 [Pictilisib] (partner 1 µM)
How it was run: (§1)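 Relative viability is defined as nuclei in treated wells over nuclei in vehicle wells. Duplicate plates were run and medians reported. Lung cancer cell lines in 1536-well plates were dosed by pin tool one day after seeding, with one drug or with a fixed anchor-drug dose plus five library-drug doses (not always all listed) in √10 steps, and nuclei were counted after 5 days.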

[2] = compound: CN(C)CC1=CC(=CC=C1)N=C(C2=CC=CC=C2)C3=C(NC4=C3C=CC(=C4)C(=O)N(C)C)O + Nc1ncn([C@H]2C[C@H](O)[C@@H](CO)O2)c(=O)n1 [Decitabine] (partner 2 µM)
How it was run: as §1

[3] = compound: CN(C)CC1=CC(=CC=C1)N=C(C2=CC=CC=C2)C3=C(NC4=C3C=CC(=C4)C(=O)N(C)C)O + C[C@@H](Oc1cc(-c2cnn(C3CCNCC3)c2)cnc1N)c1c(Cl)ccc(F)c1Cl [Crizotinib] (partner 1 µM)
How it was run: as §1

[4] = compound: CN(C)CC1=CC(=CC=C1)N=C(C2=CC=CC=C2)C3=C(NC4=C3C=CC(=C4)C(=O)N(C)C)O + Cc1nc(NC(=O)N2CCC[C@H]2C(N)=O)sc1-c1ccnc(C(C)(C)C(F)(F)F)c1 [Alpelisib] (partner 2 µM)
How it was run: as §1

[5] = compound: CN(C)CC1=CC(=CC=C1)N=C(C2=CC=CC=C2)C3=C(NC4=C3C=CC(=C4)C(=O)N(C)C)O + N=C(N)NC(=N)NCCc1ccccc1 [Phenformin] (partner 250 µM)
How it was run: as §1

[6] = compound: CN(C)CC1=CC(=CC=C1)N=C(C2=CC=CC=C2)C3=C(NC4=C3C=CC(=C4)C(=O)N(C)C)O + CS(=O)(=O)CCNCc1ccc(-c2ccc3ncnc(Nc4ccc(OCc5cccc(F)c5)c(Cl)c4)c3c2)o1 [Lapatinib] (partner 2 µM)
How it was run: as §1

[7] = compound: CN(C)CC1=CC(=CC=C1)N=C(C2=CC=CC=C2)C3=C(NC4=C3C=CC(=C4)C(=O)N(C)C)O + O=C(c1cc(Cc2n[nH]c(=O)c3ccccc23)ccc1F)N1CCN(C(=O)C2CC2)CC1 [Olaparib] (partner 8 µM)
How it was run: as §1

[8] = compound: CN(C)CC1=CC(=CC=C1)N=C(C2=CC=CC=C2)C3=C(NC4=C3C=CC(=C4)C(=O)N(C)C)O + CC1(C)CCC(c2ccc(Cl)cc2)=C(CN2CCN(c3ccc(C(=O)NS(=O)(=O)c4ccc(N[C@H](CCN5CCOCC5)CSc5ccccc5)c(S(=O)(=O)C(F)(F)F)c4)cc3)CC2)C1 [Navitoclax] (partner 0.5 µM)
How it was run: as §1

[9] = compound: CN(C)CC1=CC(=CC=C1)N=C(C2=CC=CC=C2)C3=C(NC4=C3C=CC(=C4)C(=O)N(C)C)O + COc1cc2c(Oc3ccc(NC(=O)C4(C(=O)Nc5ccc(F)cc5)CC4)cc3F)ccnc2cc1OCCCN1CCOCC1 [Foretinib] (partner 0.25 µM)
How it was run: as §1

[10] = compound: CN(C)CC1=CC(=CC=C1)N=C(C2=CC=CC=C2)C3=C(NC4=C3C=CC(=C4)C(=O)N(C)C)O + C[C@]1(O)C[C@@H](c2nc(-c3ccc4ccc(-c5ccccc5)nc4c3)c3c(N)nccn32)C1 [Linsitinib] (partner 1 µM)
How it was run: as §1

[11] = compound: CN(C)CC1=CC(=CC=C1)N=C(C2=CC=CC=C2)C3=C(NC4=C3C=CC(=C4)C(=O)N(C)C)O
How it was run: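 Viability here means nuclei in treated wells divided by nuclei in vehicle wells, reported as the median across plates. Only plates with control CV below 25% and at least one doubling passed. Lung cancer cell lines in 1536-well plates were exposed to five √10-spaced library-drug doses for 5 days and counted from 4× Hoechst images in MetaXpress.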

[12] = compound: CN(C)CC1=CC(=CC=C1)N=C(C2=CC=CC=C2)C3=C(NC4=C3C=CC(=C4)C(=O)N(C)C)O + CCNC(=O)c1noc(-c2cc(C(C)C)c(O)cc2O)c1-c1ccc(CN2CCOCC2)cc1 [Luminespib] (partner 0.01 µM)
How it was run: as §1

[13] = compound: CN(C)CC1=CC(=CC=C1)N=C(C2=CC=CC=C2)C3=C(NC4=C3C=CC(=C4)C(=O)N(C)C)O + Cc1nc(Nc2ncc(C(=O)Nc3c(C)cccc3Cl)s2)cc(N2CCN(CCO)CC2)n1 [Dasatinib] (partner 0.075 µM)
How it was run: as §1

[14] = compound: CN(C)CC1=CC(=CC=C1)N=C(C2=CC=CC=C2)C3=C(NC4=C3C=CC(=C4)C(=O)N(C)C)O + COc1cccc2cc(-c3nc([C@H]4CC[C@H](C(=O)O)CC4)n4ncnc(N)c34)[nH]c12 [OSI-027] (partner 0.5 µM)
How it was run: as §1

[15] = compound: CN(C)CC1=CC(=CC=C1)N=C(C2=CC=CC=C2)C3=C(NC4=C3C=CC(=C4)C(=O)N(C)C)O + Cc1cc(Nc2cc(N3CCN(C)CC3)nc(Sc3ccc(NC(=O)C4CC4)cc3)n2)n[nH]1 [Tozasertib] (partner 0.1 µM)
How it was run: as §1

A549 was tested, and the relative viability ([1]; first compound 0.08 µM) was 0.525, the relative viability ([1]; first compound 0.253 µM) was 0.509 and the relative viability ([1]; first compound 0.8 µM) was 0.448. The relative viability ([1]; first compound 2.53 µM) was 0.438, the relative viability ([1]; first compound 8 µM) was 0.384 and the relative viability ([2]; first compound 0.253 µM) was 0.286. It also gave a relative viability ([2]; first compound 0.8 µM) of 0.27, a relative viability ([2]; first compound 2.53 µM) of 0.223 and a relative viability ([2]; first compound 8 µM) of 0.246. It also gave a relative viability ([3]; first compound 0.08 µM) of 0.847, a relative viability ([3]; first compound 0.253 µM) of 0.683 and a relative viability ([3]; first compound 0.8 µM) of 0.818. For the same cell line, the relative viability ([3]; first compound 2.53 µM) was 0.686, the relative viability ([3]; first compound 8 µM) was 0.731 and the relative viability ([4]; first compound 0.08 µM) was 0.77. It also gave a relative viability ([4]; first compound 0.253 µM) of 0.921, a relative viability ([4]; first compound 0.8 µM) of 0.883 and a relative viability ([4]; first compound 2.53 µM) of 0.711. The relative viability ([4]; first compound 8 µM) was 0.592, the relative viability ([5]; first compound 0.08 µM) was 0.202 and the relative viability ([5]; first compound 0.253 µM) was 0.157. For the same cell line, the relative viability ([5]; first compound 0.8 µM) was 0.124, the relative viability ([5]; first compound 2.53 µM) was 0.0946 and the relative viability ([5]; first compound 8 µM) was 0.16. It also gave a relative viability ([6]; first compound 0.08 µM) of 0.962, a relative viability ([6]; first compound 0.253 µM) of 1.01 and a relative viability ([6]; first compound 0.8 µM) of 1.02. The relative viability ([6]; first compound 2.53 µM) was 0.945, the relative viability ([6]; first compound 8 µM) was 0.934 and the relative viability ([7]; first compound 0.08 µM) was 0.294. For the same cell line, the relative viability ([7]; first compound 0.253 µM) was 0.372, the relative viability ([7]; first compound 0.8 µM) was 0.401 and the relative viability ([7]; first compound 2.53 µM) was 0.148. It also gave a relative viability ([7]; first compound 8 µM) of 0.406, a relative viability ([8]; first compound 0.08 µM) of 1.23 and a relative viability ([8]; first compound 0.253 µM) of 1.24. For the same cell line, the relative viability ([8]; first compound 0.8 µM) was 1.19, the relative viability ([8]; first compound 2.53 µM) was 1.2 and the relative viability ([8]; first compound 8 µM) was 1.2. It also gave a relative viability ([9]; first compound 0.08 µM) of 0.988, a relative viability ([9]; first compound 0.253 µM) of 0.927 and a relative viability ([9]; first compound 0.8 µM) of 0.948. It also gave a relative viability ([9]; first compound 2.53 µM) of 0.899, a relative viability ([9]; first compound 8 µM) of 1.02 and a relative viability ([10]; first compound 0.08 µM) of 0.595. It also gave a relative viability ([10]; first compound 0.253 µM) of 0.575, a relative viability ([10]; first compound 0.8 µM) of 0.518 and a relative viability ([10]; first compound 2.53 µM) of 0.544. For the same cell line, the relative viability ([10]; first compound 8 µM) was 0.475, the relative viability ([11]; 0.08 µM) was 1.01 and the relative viability ([11]; 0.253 µM) was 0.991. For the same cell line, the relative viability ([11]; 0.8 µM) was 1.01, the relative viability ([11]; 2.53 µM) was 0.929 and the relative viability ([11]; 8 µM) was 0.901.

Cell Line NCI-H1623 has a relative viability ([12]; first compound 0.08 µM) of 0.416, a relative viability ([12]; first compound 0.253 µM) of 0.652 and a relative viability ([12]; first compound 2.53 µM) of 0.445. It also gave a relative viability ([12]; first compound 8 µM) of 0.504, a relative viability ([13]; first compound 0.08 µM) of 0.552 and a relative viability ([13]; first compound 0.253 µM) of 0.632. The relative viability ([13]; first compound 2.53 µM) was 0.593, the relative viability ([13]; first compound 8 µM) was 0.499 and the relative viability ([5]; first compound 0.08 µM) was 0.544. The relative viability ([5]; first compound 0.253 µM) was 0.69, the relative viability ([5]; first compound 2.53 µM) was 0.551 and the relative viability ([5]; first compound 8 µM) was 0.514. For the same cell line, the relative viability ([14]; first compound 0.08 µM) was 0.428, the relative viability ([14]; first compound 0.253 µM) was 0.449 and the relative viability ([14]; first compound 0.8 µM) was 0.378. The relative viability ([14]; first compound 2.53 µM) was 0.452, the relative viability ([14]; first compound 8 µM) was 0.514 and the relative viability ([9]; first compound 0.08 µM) was 0.825. For the same cell line, the relative viability ([9]; first compound 0.253 µM) was 1.17, the relative viability ([9]; first compound 0.8 µM) was 0.642 and the relative viability ([9]; first compound 2.53 µM) was 0.894. For the same cell line, the relative viability ([9]; first compound 8 µM) was 0.854, the relative viability ([15]; first compound 0.08 µM) was 0.428 and the relative viability ([15]; first compound 0.253 µM) was 0.519. The relative viability ([15]; first compound 2.53 µM) was 0.412, the relative viability ([15]; first compound 8 µM) was 0.464 and the relative viability ([11]; 0.08 µM) was 1.09. It also gave a relative viability ([11]; 0.253 µM) of 0.97, a relative viability ([11]; 0.8 µM) of 0.729 and a relative viability ([11]; 2.53 µM) of 1.04. It also gave a relative viability ([11]; 8 µM) of 1.09.
